Measured values as given in ChEMBL document CHEMBL3232919, “Imidazol-1-ylethylindazole voltage-gated sodium channel ligands are neuroprotective during optic neuritis in a mouse model of multiple sclerosis” (J Med Chem, 2014).

What was measured:
[1] = Displacement of [3H]sipatrigine from Wistar rat brain synaptosomes voltage-gated sodium channel by liquid scintillation counting; format: subcellular
Rattus norvegicus = species: Rattus norvegicus; test: Neuroprotective activity in oxygen/glucose deprivation-induced Wistar rat hippocampal slice assessed as inhibition of cell death by measuring ATP level at 50 uM; format: functional

Compound | IC50 [1] [µM] | inhibition at 50 µM (Rattus norvegicus) [%]
Cc1oncc1Cn1nc(-c2nc(CNC(=O)c3ccccc3)no2)c2ccccc21 | > 2000 | 19
COc1ccc(C(=O)NCc2noc(-c3c4ccccc4nn3CCn3ccnc3)n2)cc1 | 6.2 | 55
O=S(=O)(NCc1noc(-c2nn(CCn3ccnc3)c3ccccc23)n1)c1ccc(OC(F)(F)F)cc1 | 4.9 | 0
Cc1oncc1Cn1nc(-c2nc(CN)no2)c2ccccc21 | 15 | 19
NCc1noc(-c2nn(Cc3ccc(-n4cccn4)cc3)c3ccccc23)n1 | 6.2 | 26
CC(C)(C)c1ccc(S(=O)(=O)NCc2noc(-c3nn(CCn4ccnc4)c4ccccc34)n2)cc1 | 4.4 | 16
CC(C)(C)OC(=O)NCc1noc(-c2c3ccccc3nn2Cc2ccccn2)n1 | 23 | 42
O=C(NCc1noc(-c2nn(CCn3ccnc3)c3ccccc23)n1)c1cccc2[nH]ccc12 | 13 | 52
COc1cccc(C(=O)NCc2noc(-c3nn(CCn4ccnc4)c4ccccc34)n2)c1OC | 7.1 | 69
NCc1noc(-c2c3ccccc3nn2CCc2cccs2)n1 | 0.6 | 36
O=C(NCc1noc(-c2c3ccccc3nn2Cc2ccccn2)n1)c1ccccc1 | 41 | 58
CC(C)(C)OC(=O)NCc1noc(-c2nn(CCn3ccnc3)c3ccccc23)n1 | 7.4 | 56
CC(C)(C)OC(=O)NCc1noc(-c2c3ccccc3nn2CCc2cccs2)n1 | 166 | 1
CC(C)(C)c1ccc(C(=O)NCc2noc(-c3nn(CCn4ccnc4)c4ccccc34)n2)cc1 | 1.2 | 40
O=S(=O)(NCc1noc(-c2nn(CCn3ccnc3)c3ccccc23)n1)c1cccc(C(F)(F)F)c1 | 2.1 | 38
O=C(NCc1noc(-c2c3ccccc3nn2CCn2ccnc2)n1)c1cccc(F)c1F | 3.6 | 2

Compound | IC50 [1] [µM] | inhibition at 50 µM (Rattus norvegicus) [%]
NCc1noc(-c2nn(-c3ccccn3)c3ccccc23)n1 | 32 | -11
NCc1noc(-c2c3ccccc3nn2Cc2ccccc2)n1 | – | 57
Cc1ccccc1C(=O)NCc1noc(-c2c3ccccc3nn2CCn2ccnc2)n1 | 2.9 | 62
COc1cccc(S(=O)(=O)NCc2noc(-c3nn(CCn4ccnc4)c4ccccc34)n2)c1OC | > 500 | 37
Cc1cc(C(=O)NCc2noc(-c3c4ccccc4nn3CCn3ccnc3)n2)ccc1[N+](=O)[O-] | 1.7 | 43
CC(C)(C)OC(=O)NCc1noc(-c2nn(Cc3ccc4c(c3)OCO4)c3ccccc23)n1 | 6 | -3
O=C(NCc1noc(-c2c3ccccc3nn2CCn2ccnc2)n1)c1ccc2c(c1)OCO2 | 5 | 27
Cc1oncc1Cn1nc(-c2nc(CNC(=O)OC(C)(C)C)no2)c2ccccc21 | 339 | 39
COc1ccccc1C(=O)NCc1noc(-c2c3ccccc3nn2CCn2ccnc2)n1 | 7.1 | 54
NCc1noc(-c2nn(Cc3ccc4c(c3)OCO4)c3ccccc23)n1 | 2.1 | 44
Cc1ccccc1S(=O)(=O)NCc1noc(-c2nn(CCn3ccnc3)c3ccccc23)n1 | 4.9 | 57
O=C(NCc1noc(-c2c3ccccc3nn2CCn2ccnc2)n1)c1ccc2ccccc2c1 | 0.4 | 22
COc1cccc(C(=O)NCc2noc(-c3c4ccccc4nn3CCn3ccnc3)n2)c1 | 5 | 63
O=C(NCc1noc(-c2c3ccccc3nn2CCc2cccs2)n1)c1ccccc1 | > 1000 | -2
O=C(NCc1noc(-c2c3ccccc3nn2CCn2ccnc2)n1)c1ccc(Cl)cc1 | 2.2 | 42
